Values of other authors in patent publication US7700588B2, “Pharmaceutical compositions comprising midazolam in a high concentration” (priority 2004, dated 2010).
Where two headings read alike, the source gives them in different places.

Tests used:
[1] = test system: intestinal drug efflux transporter; conditions: orally delivered
[2] = nasal 0.2 mg/kg
[3] = free base, pH 7.5
[4] = not given; remark: listed apart in the source
[5] = for mean absolute bioavailability: injection solutions
[6] = commercial intravenous solutions 5 mg/ml, pH 3.3 to 3.5
[7] = after nasal administration, 0.2 to 0.25 mg/kg

SMILES: Cc1ncc2n1-c1ccc(Cl)cc1C(c1ccccc1F)=NC2 [midazolam]
- transporter substrate [1]: substrate for the intestinal drug efflux transporter
- side effects in children [2]: none of the children had clinical signs of respiratory depression, bradycardia or other side effects
- partition coefficient between octanol and phosphate buffer [3]: about 475
- onset of action (intranasal, children and adults): about 10 minutes
- clinical effect in children undergoing diagnostic and minor surgical procedures (nasal 0.2 mg/kg): sedative and anxiolytic effects
- effect on seizures and EEG in epileptic children (nasal 0.2 mg/kg): suppresses acute seizures and improves the EEG background
- share in the ring-closed form [4, 6]: 80-85%
- share in the ring-open form [4, 6]: 15-20%
- state of the ring when pH is increased ([4]; pH increased to 7.4): completely closed
- time for which therapeutically effective plasma concentrations are maintained [5, 7]: about 1 hour
- time until therapeutically effective plasma concentrations are manifest [5, 7]: 3 min
- time to maximum plasma concentrations ([5]; intranasal): 5 to 15 min
- mean absolute bioavailability ([5]; intranasal, adult surgical patients): 83%
- mean absolute bioavailability ([5]; intranasal, children): 50%
- mean absolute bioavailability ([5]; intranasal, healthy volunteers): 55%
